Experimental data published in patent US11957684B2, “Treatment of heavy menstrual bleeding associated with uterine fibroids” (Sumitomo Pharma Switzerland GmbH, priority 2016, dated 2024).

Columns and labels:
[1] = system: uterine fibroids; assay: Example 10 phase 3 study versus leuprorelin in uterine fibroids: efficacy; format: in vivo, human; conditions: between Week 6 and Week 12
Procedure: Subjects were aged 20 years or older inclusive, with uterine fibroids. […] The number of sites for this study was approximately 40.
The leuprorelin subjects were administered 1.88 mg leuprorelin, 3.75 mg leuprorelin, or placebo subcutaneously once every 4 weeks. The duration of treatment for both groups was 24 weeks, and the follow-up period was 4 weeks.
Assessment included answers to the uterine fibroid symptom and quality of life questionnaire provided in FIGS. 3A-3C; answers to the work productivity and activity impairment questionnaire: general health provided in FIGS. 66A-66B; clinical laboratory tests for hematology, chemistries, urinalysis, hormone, and biochemical bone metabolism markers.

[2] = system: endometriosis; assay: Example 7 12-week study in endometriosis: efficacy (VAS, B&B, EHP-30); format: in vivo, human; conditions: for Physician B&B, dysmenorrhea / Physician B&B, dyspareunia / Physician B&B, non-menstrual pelvic pain / change from baseline in EHP-30, Control and powerlessness / change from baseline in EHP-30, Self-image / change from baseline in EHP-30, emotional well-being / change from baseline in EHP-30, pain / change from baseline in EHP-30, social support: Week 12; for Modified (patient) B&B, deep dyspareunia / Modified (patient) B&B, dysmenorrhea / Modified (patient) B&B, non-menstrual pelvic pain / change from baseline in proportion of days with usage of analgesics: end of treatment
Procedure: Secondary endpoints included VAS score for pelvic pain, dysmenorrhea, and dyspareunia during the treatment period. […] Subjects recorded in the patient diary every day until the end of treatment. […] Designated examinations and evaluations were performed at each visit. As used in the examples, the VAS score was evaluated using a 100 mm scale. For pain intensity, the scale was anchored by “no pain” (score of 0) and “pain as bad as you can imagine” (score of 100). […] The above items were evaluated using a patient diary that was distributed by the sponsor. Subjects filled out the patient diary every day during the treatment period or until early termination. If taking prohibited analgesics, subjects recorded this fact in the patient diary along with the accompanying pain symptoms before use of analgesics. As used in the examples, pain during menstruation and pelvic pain unrelated to menstruation were evaluated using scores on the M-B&B and B&B. The M-B&B scores were recorded by subjects on the patient diary supplied by the sponsor. Subjects filled out the patient diary every day during the treatment period or until early termination. If taking prohibited analgesics, subjects recorded this fact in the patient diary along with the accompanying pain symptoms before use of analgesics. The investigator or subinvestigator assessed each patient's pain through interviews and filled out a B&B once a month. The items that were assessed are shown below. The M-B&B score included: dysmenorrhea (severe, moderate, mild, no pain, or no menstruation); pelvic pain (severe, moderate, mild, or no pain); deep dyspareunia (severe, moderate, mild, no pain, or no intercourse). The B&B score included: dysmenorrhea (severe, moderate, mild, none, or not applicable); dyspareunia (severe, moderate, mild, none, or not applicable); pelvic pain (severe, moderate, mild, or none); pelvic tenderness (severe, moderate, mild, or none); and induration (severe, moderate, mild, or none). As used in the examples, the EHP-30 score was obtained by subjects assessing and recording their own QOL using the EHP-30 questionnaire.

[3] = human, in vivo; cited from earlier work

## CONC(=O)Nc1ccc(-c2sc3c(c2CN(C)C)c(=O)n(-c2ccc(OC)nn2)c(=O)n3Cc2c(F)cccc2F)cc1 [Compound 1, N-(4-(1-(2,6-difluorobenzyl)-5-((dimethylamino)methyl)-3-(6-methoxy-3-pyridazinyl)-2,4-dioxo-1,2,3,4-tetrahydrothieno[2,3-d]pyrimidin-6-yl)phenyl)-N′-methoxyurea]
[1]
  proportion of subjects with a PBAC <10: 82.2%
[2]; 10 mg
  Physician B&B, dysmenorrhea: −1.0
  Physician B&B, dyspareunia: −0.2
  Physician B&B, non-menstrual pelvic pain: −0.6
  change from baseline in EHP-30, Control and powerlessness: −13.7
  change from baseline in EHP-30, Self-image: −5.5
  change from baseline in EHP-30, emotional well-being: −8.3
  change from baseline in EHP-30, pain: −18.3
  change from baseline in EHP-30, social support: −6.6
  Modified (patient) B&B, deep dyspareunia: −0.08
  Modified (patient) B&B, dysmenorrhea: −0.48
  Modified (patient) B&B, non-menstrual pelvic pain: −0.21
  change from baseline in proportion of days with usage of analgesics: −6.6
[2]; 10 mg, end of 12-wk treatment period
  change from baseline in mean VAS score, pelvic pain: −6.168±9.1411 mm
[2]; 20 mg
  Physician B&B, dysmenorrhea: −1.5
  Physician B&B, dyspareunia: −0.2
  Physician B&B, non-menstrual pelvic pain: −0.8
  change from baseline in EHP-30, Control and powerlessness: −14.6
  change from baseline in EHP-30, Self-image: −6.3
  change from baseline in EHP-30, emotional well-being: −8.9
  change from baseline in EHP-30, pain: −17.8
  change from baseline in EHP-30, social support: −8.4
  Modified (patient) B&B, deep dyspareunia: −0.10
  Modified (patient) B&B, dysmenorrhea: −0.76
  Modified (patient) B&B, non-menstrual pelvic pain: −0.22
  change from baseline in proportion of days with usage of analgesics: −6.3
[2]; 20 mg, end of 12-wk treatment period
  change from baseline in mean VAS score, pelvic pain: −8.070±13.3707 mm
[2]; 40 mg, Day 1-28
  change from baseline in mean VAS score, pelvic pain: −3.761 mm
[2]; 40 mg, Day 29-56
  change from baseline in mean VAS score, pelvic pain: −8.960±9.8226 mm
[2]; 40 mg, Day 57-84
  change from baseline in mean VAS score, pelvic pain: −10.464±11.0995 mm
[2]; 40 mg
  Physician B&B, dysmenorrhea: −2.0
  Physician B&B, dyspareunia: −0.1
  Physician B&B, non-menstrual pelvic pain: −0.9
  change from baseline in EHP-30, Control and powerlessness: −17.2
  change from baseline in EHP-30, Self-image: −8.4
  change from baseline in EHP-30, emotional well-being: −10.4
  change from baseline in EHP-30, pain: −25.3
  change from baseline in EHP-30, social support: −6.8
  Modified (patient) B&B, deep dyspareunia: −0.07
  Modified (patient) B&B, dysmenorrhea: −1.16
  Modified (patient) B&B, non-menstrual pelvic pain: −0.33
  change from baseline in proportion of days with usage of analgesics: −10.1
[2]; 40 mg, end of 12-wk treatment period
  change from baseline in mean VAS score, pelvic pain: −10.418±11.0171 mm

## CCNC(=O)[C@@H]1CCCN1C(=O)[C@H](CCCNC(=N)N)NC(=O)[C@H](CC(C)C)NC(=O)[C@@H](CC(C)C)NC(=O)[C@H](Cc1ccc(O)cc1)NC(=O)[C@H](CO)NC(=O)[C@H](Cc1c[nH]c2ccccc12)NC(=O)[C@H](Cc1c[nH]cn1)NC(=O)[C@@H]1CCC(=O)N1 [leuprolide acetate, reference compound]
[3]
  bone mineral density decrease: −2.21±1.709%
  women with a decrease of more than 5.0% in bone mineral density: 10 of 157
[1]
  proportion of subjects with a PBAC <10: 83.1%
[2]; 3.75 mg sc/4 wk
  Physician B&B, dysmenorrhea: −2.1
  Physician B&B, dyspareunia: −0.6
  Physician B&B, non-menstrual pelvic pain: −1.1
  change from baseline in EHP-30, Control and powerlessness: −19.6
  change from baseline in EHP-30, Self-image: −6.1
  change from baseline in EHP-30, emotional well-being: −8.8
  change from baseline in EHP-30, pain: −23.2
  change from baseline in EHP-30, social support: −6.8
  Modified (patient) B&B, deep dyspareunia: −0.36
  Modified (patient) B&B, dysmenorrhea: −1.16
  Modified (patient) B&B, non-menstrual pelvic pain: −0.41
  change from baseline in proportion of days with usage of analgesics: −8.3
[2]; 3.75 mg sc/4 wk, end of 12-wk treatment period
  change from baseline in mean VAS score, pelvic pain: −10.460±10.3013 mm
